Measured values as given in US20150139971A1, “METHOD FOR PREPARING REGULATORY DENDRITIC CELLS” (NIPPON KAYAKU KABUSHIKI KAISHA, priority 2010, published 2015).

Columns and labels:
[1] = test system: autoimmune angiitis model; conditions: Non-patent Document 6; cited from earlier work
dendritic cells = dendritic cells cultured in the presence of the compound; cited from earlier work
[2] = test system: graft-versus-host disease model; conditions: Non-patent Document 5; cited from earlier work
[3] = test system: dendritic cells derived from C57BL/6 mouse bone marrow cells; assay: Expression of costimulatory molecules CD40, CD80, CD86 by flow cytometry (MFI) on matured dendritic cells; assay type: cell-based
Experimental: (§1) The C57BL/6 mouse bone marrow cells were cultured for 7 days in 10% FCS-RPMI1640 medium containing 20 ng/mL GM-CSF (Peprotech, origin: rabbit) and 20 ng/mL IL-4 (Peprotech, origin: rabbit) so as to cause the cells to differentiate into dendritic cells. Subsequently, 20 ng/mL TNF-α (Peprotech, origin: rabbit) was added for maturation. Treatment with NK026680 was performed by adding 50 ng/mL NK026680 on days 2 and 4 of culture and adding 250 ng/mL NK026680 on day 6 of culture.
The BALB/c mouse-derived spleen cell extract was added to dendritic cells derived from bone marrow cells which were collected from the C57BL/6 mouse, thereby causing cells to present a BALB/c antigen. The effect of incorporating the BALB/c antigen was confirmed by measuring the expression of 1-Ad (antibody: BD pharmingen), which is a BALB/c major histocompatibility complex (MHC), by flow cytometry. At this time, cells were cultured in the presence or the absence of NK026680, and the cells were allowed to mature with TNF-α (Peprotech, origin: rabbit). Maturation of dendritic cells was confirmed by flow cytometric analysis of the expression of the mature dendritic cell marker. Fluorescence-labeled antibodies against CD40, CD80 and CD86 costimulatory molecules were reacted in NK026680-treated dendritic cells (NK-DC) of the present invention and untreated dendritic cells (CTR-DC). Mean fluorescence intensity (MFI) was measured by flow cytometry, so that the expression levels of CD40, CD80, and CD86 were compared.

[4] = test system: dendritic cells derived from C57BL/6 mouse bone marrow cells; assay: IL-6 and IL-12p40 in culture supernatant of dendritic cells by ELISA; assay type: cell-based
Experimental: as §1
In this Example 2, in a manner similar to that in Example 1, the dendritic cells of the present invention treated with NK026680 and untreated dendritic cells, which had been obtained by differentiation and maturation of C57BL/6 mouse bone marrow cells, were obtained. After stimulation with TNF, cells were cultured for 24 hours. The thus obtained culture supernatant was collected, and then the concentrations of immune-response-stimulating cytokines, IL-6 and IL-12p40, were measured by ELISA (BD bioscience) (n=3).

For `COc1ccc(-c2ccnc3nc(NC(=O)N[C@@H](C)CCCC(C)(C)O)nn23)cc1` [NK026680, (S)-(+)-1-(5-hydroxy-1,5-dimethylhexyl)-3-[7-(4-methoxyphenyl)-[1,2,4]triazolo[1,5-a]pyrimidin-2-yl]urea], the “effects against an autoimmune angiitis model” value [1] is listed as “exhibited effects”, the “expression level of a costimulatory molecule” value (dendritic cells) is listed as “decreased” and the “effects against a graft-versus-host disease model” value [2] is listed as “exhibited effects”. The “CD40 (MFI)” value ([3]; NK026680 50 ng/mL on days 2 and 4, 250 ng/mL on day 6, BALB/c antigen, matured with TNF-α, untreated cells 244) was 159 MFI, the “CD86 (MFI)” value ([3]; NK026680 50 ng/mL on days 2 and 4, 250 ng/mL on day 6, BALB/c antigen, matured with TNF-α, untreated cells 356) was 217 MFI and the “CD80 (MFI)” value ([3]; NK026680 50 ng/mL on days 2 and 4, 250 ng/mL on day 6, BALB/c antigen, matured with TNF-α, untreated cells 659) was 320 MFI. For the same molecule, the “expression levels of CD40, CD80 and CD86 compared with untreated dendritic cells (CTR-DC)” value ([3]; in words) was “lower”, the “IL-6” value ([4]; culture supernatant 24 hours after TNF stimulation, n=3, untreated cells 1235 ± 272) was 219 ± 94 pg/mL and the “IL-12p40” value ([4]; culture supernatant 24 hours after TNF stimulation, n=3, untreated cells 1555 ± 650) was 347 ± 100 pg/mL. For the same molecule, the “concentrations of IL-6 and IL-12p40 in culture supernatant compared with untreated dendritic cells” value ([4]; in words) was “lower”.
